Assay results: patent US9938292B2 (GUANGDONG ZHONGSHENG PHARMACEUTICAL CO., LTD, priority 2014, dated 2018)

System: Hedgehog signaling pathway
Assay: Gli-Luc luciferase reporter gene assay in C3H10T1/2/Gli-Luc cells under Shh-N stimulation
Format: cell-based
Conditions: Mus musculus, C3H 10T1/2, 24 h, luciferase RLU, read-out: biological activity: IC50 of the inhibitory activities of compounds on the hedgehog pathway
Text: The luciferase (Gli-Luc) reporter gene with Gli response element was transfected into C3H10T1/2 cells, under Shh-N stimulation conditions, determine the Hedgehog signaling pathway inhibitors through the detection of gene expression in cell activity report. In this study, we evaluated the inhibitory effects of compounds on Hedgehog signaling pathway in the IC50 value of the compound as an index.
Cell lines: C3H10T1/2/Gli-Luc stable cell line • C3H10T1/2/Gli-Luc Cell culture medium (DMEM/high glucose HyClone, #SH30022.01B; 10% serum Hyclone, #SV30087; 0.4% Hygromycin B Roche, #13398200) • 0.25% Trypsin-EDTA (Gibco, #25200)
Shh-N, HEK293/SHH-N stable cell culture supernatant
Inoculate the logarithmic growth phase of C3H10T1/2/Gli-Luc cells into a 96-well culture plate with 20000 cells per well, cells were cultured in a 37° C., 5% CO2 incubator overnight. The next day, the compounds were diluted in the following ways: the positive compound GDC0449 (1 mM) and the compounds (1 mM) to be measured were serially diluted to 7 concentrations by DMSO according to 1:3 and 1:10 respectively, the eighth is for DMSO control, and then diluted with fresh medium 100 times. The medium of the cells cultured overnight was removed, 80 μL fresh culture medium was added per well, then 20 μL gradiently diluted positive compound and compounds to be measured and 100 μL 30 nM Shh-N containing conditioned medium were added, each concentration repeated 2 wells, at the same time, positive and negative reference well were set (i.e. Shh Ctrl: 80 μL fresh medium+20 μL 1% DMSO containing medium+100 μL 30 nM Shh-N containing conditioned medium; Unstimulated Ctrl: 180 μL fresh medium+20 μL 1% DMSO containing medium), cells were cultured in the incubator for further 24 h.
Intracellular luciferase activity detection: take the cells out of 96-well plate, discard the culture medium, the cells were washed with PBS twice, then each well added with 20 μL lysate (Promega E1531), oscillate pyrolysis at room temperature for 30 min. 5 μL cell lysates were transferred to 384-well plate (Greiner 781074), then each well was added with 25 μL luciferase reaction liquid (Promega E1501), after rapid mixed, immediately placed into the VarioSkan Flash multi-function reading instrument to read the relative light units (RLU) value.
Data analysis: using Prism's GraphPad 5 for data analysis. RLU reading to the logarithmic mapping of compound concentration on behalf of luciferase activity, and then curve fitting using the following equation to give IC50 value, Y (RLU)=minimum+(maximum−minimum)/(1+10^(log of compound concentration−Log IC50)).

**Q.** For `COc1c(N2CCN(c3ncc(C(C)(C)O)cc3C(F)(F)F)CC2)cnc2c(-c3ccc(C#N)cc3)cccc12` [Embodiment 223], which IC50 is on record?
**A.** Its IC50 is 100 to 500 nM.

**Q.** `Cc1cn(-c2ccc(N3C[C@@H](C)O[C@@H](C)C3)cc2)c(=O)c2cccc(-c3ccc(C#N)cc3)c12` [Embodiment 52] was tested. Which IC50 did it give?
**A.** The IC50 was 100 to 500 nM.

**Q.** `Cc1cn(-c2ccc(N3C[C@@H](C)O[C@@H](C)C3)cc2)c(=O)c2cccc(-c3ccncc3)c12` [Embodiment 49] was tested. Which IC50 did it give?
**A.** The IC50 was 500 to 1000 nM.

**Q.** How did the IC50 turn out when `COc1c(-c2ccc(N3C[C@@H](C)O[C@@H](C)C3)cc2)cnc2c(-c3ccc(S(=O)(=O)N4CCOCC4)cc3)cccc12` [Embodiment 96] was run?
**A.** Its IC50 is 100 to 500 nM.

**Q.** Which IC50 does the source give for `COc1c(-c2ccc(N3C[C@@H](C)O[C@@H](C)C3)cn2)cnc2c(-c3ccc(C#N)cc3)cccc12` [Embodiment 171] here?
**A.** Its IC50 is no more than 50 nM.

**Q.** How did the IC50 turn out when `Cc1cn(-c2ccc(N3CCN4CCCC4C3)cc2)c(=O)c2cccc(-c3ccc(C#N)cc3)c12` (centres unmarked) [Embodiment 11] was run?
**A.** The IC50 was 100 to 500 nM.

**Q.** For `C[C@@H]1CN(c2ccc(-c3c([O-])c4cccc(-c5ccc(C#N)cc5)c4n[n+]3C)cc2)C[C@H](C)O1` [Embodiment 150, 8-(4-cyanophenyl)-3-(4-((2R,6S)-2,6-dimethylmorpholino)phenyl)-2-methylcinnolin-2-ium-4-olate], which IC50 is on record?
**A.** Its IC50 is 500 to 1000 nM.

**Q.** `COc1c(-c2ccc(N3C[C@@H](C)O[C@@H](C)C3)nc2)cnc2c(-c3ccc(S(C)(=O)=O)cc3)cccc12` [Embodiment 161] was tested. Which IC50 did it give?
**A.** The IC50 was no more than 50 nM.

**Q.** With `COc1c(-c2ccc(N3C[C@@H](C)O[C@@H](C)C3)cc2)cnc2c(-c3nc4ccccc4[nH]3)cccc12` [Embodiment 114, (2S,6R)-4-(4-(8-(1H-benzo[d]imidazol-2-yl)-4-methoxyquinolin-3-yl)phenyl)-2,6-dimethylmorpholine] as the compound, how does the IC50 read?
**A.** Its IC50 is 1000 to 5000 nM.

**Q.** Which IC50 does the source give for `CCC(=O)N1[C@H](C)CN(c2ccc(-c3cnc4c(-c5ccc(C#N)cc5)cccc4c3OC)cc2)C[C@@H]1C` [Embodiment 180, 4-(3-(4-((3S, 5R)-3,5-dimethyl-4-propionylpiperazin-1-yl)phenyl)-4-methoxyquinolin-8-yl)benzonitrile] here?
**A.** The IC50 was no more than 50 nM.

**Q.** Which IC50 does the source give for `C[C@@H]1CN(c2ccc(-c3cnc4c(-c5ccc(C#N)cc5)cccc4c3OCCN(C)C)cc2)C[C@H](C)O1` [Embodiment 146] here?
**A.** The IC50 was 500 to 1000 nM.

**Q.** `COc1c(-c2ccc(N3C[C@@H](C)O[C@@H](C)C3)nn2)cnc2c(-c3ccc(C#N)cc3)cccc12` [Embodiment 175, 4-(3-(6-((2S,6R)-2,6-dimethylmorpholino)pyridazin-3-yl)-4-methoxyquinolin-8-yl) benzonitrile] was tested. Which IC50 did it give?
**A.** The IC50 was 100 to 500 nM.

**Q.** With `Cc1cn(-c2ccc(N3C[C@@H](C)O[C@@H](C)C3)cc2)c(=O)c2ccnc(-c3ccc(C#N)s3)c12` [Embodiment 84] as the compound, how does the IC50 read?
**A.** The IC50 was 1000 to 5000 nM.

**Q.** Which IC50 does the source give for `COc1c(C2CCC(N3C[C@@H](C)O[C@@H](C)C3)CC2)cnc2c(-c3ccc(C#N)cc3)cccc12` (some centres unmarked) [Embodiment 232, 4-(3-(4-(2,6-dimethylmorpholino-4-yl)cyclohexyl)-4-methoxyquinolin-8-yl) benzonitrile] here?
**A.** The IC50 was 100 to 500 nM.

**Q.** Which IC50 does the source give for `CC(C)Oc1c(-c2ccc(N3C[C@@H](C)O[C@@H](C)C3)cc2)cnc2c(-c3ccc(C#N)cc3)cccc12` [Embodiment 144] here?
**A.** The IC50 was 100 to 500 nM.

**Q.** Which IC50 does the source give for `C[C@@H]1CN(c2ccc(-c3cnc4c(-c5ccc(C#N)cc5)cccc4c3Cl)cc2)C[C@H](C)O1` [Embodiment 118, 4-(4-chloro-3-(4-((2S,6R)-2,6-dimethylmorpholino)phenyl)quinolin-8-yl)benzonitrile] here?
**A.** Its IC50 is 50 to 100 nM.

**Q.** Which IC50 does the source give for `COc1c(N2CCC(O)(c3ccc(C(C)(C)O)cn3)CC2)cnc2c(-c3ccc(C#N)cc3)cccc12` [Embodiment 238, 4-(3-(4-hydroxy-4-(5-(2-hydroxypropan-2-yl)pyridin-2-yl)piperidin-1-yl)-4-methoxyquinolin-8-yl)benzonitrile] here?
**A.** Its IC50 is no more than 50 nM.

**Q.** `C[C@@H]1CN(c2ccc(-n3ccc4c(-c5ccc(C#N)cc5)cccc4c3=O)cc2Cl)C[C@H](C)O1` [Embodiment 77, 4-(2-(3-chloro-4-((2S,6R)-2,6-dimethylmorpholino)phenyl)-1-oxo-1,2-dihydroisoquinolin-5-yl)benzonitrile] was tested. Which IC50 did it give?
**A.** Its IC50 is 500 to 1000 nM.

**Q.** `Cc1cn(-c2ccc(N3CC4CC3CO4)cc2)c(=O)c2cccc(-c3ccc(C#N)cc3)c12` (centres unmarked) [Embodiment 6] was tested. Which IC50 did it give?
**A.** Its IC50 is 500 to 1000 nM.

**Q.** How did the IC50 turn out when `COc1c(-c2ccc(N3C[C@@H](C)O[C@@H](C)C3)c(Cl)c2)cnc2c(-c3ccc(C#N)cc3)cccc12` [Embodiment 173] was run?
**A.** The IC50 was 100 to 500 nM.

**Q.** `Cc1cn(-c2ccc(N3CC(C)N(Cc4ccccc4)C(C)C3)cc2)c(=O)c2cccc(-c3ccc(C#N)cc3)c12` (centres unmarked) [Embodiment 35] was tested. Which IC50 did it give?
**A.** The IC50 was 100 to 500 nM.

**Q.** For `COc1c(-c2ccc(N3C[C@@H](C)N(C(=O)c4cncc(C)c4)[C@@H](C)C3)cc2)cnc2c(-c3ccc(C#N)cc3)cccc12` [Embodiment 203], which IC50 is on record?
**A.** The IC50 was no more than 50 nM.

**Q.** For `COc1c(-c2csc(N3C[C@@H](C)O[C@@H](C)C3)n2)cnc2c(-c3ccc(C#N)cc3)cccc12` [Embodiment 179, 4-(3-(2-(2,6-dimethylmorpholin-4-yl)thiazol-4-yl)-4-methoxyquinolin-8-yl) benzonitrile], which IC50 is on record?
**A.** Its IC50 is 500 to 1000 nM.

**Q.** Which IC50 does the source give for `COc1c(-c2ccc(N3C[C@@H](C)N(C(=O)CO)[C@@H](C)C3)nc2)cnc2c(-c3ccc(C#N)cc3)cccc12` [Embodiment 189, 4-(3-(6-(4-(2-hydroxyacetyl)-3,5-dimethylpiperazin-1-yl)pyridin-3-yl)-4-methoxyquinolin-8-yl)benzonitrile] here?
**A.** The IC50 was no more than 50 nM.

**Q.** For `CCC(=O)N1[C@@H]2CC[C@H]1CN(c1ccc(-c3cnc4c(-c5ccc(C#N)cc5)cccc4c3OC)cn1)C2` [Embodiment 205, 4-(4-methoxy-3-(6-(8-propionyl-3,8-diazabicyclo[3.2.1]octan-3-yl)pyridin-3-yl)quinolin-8-yl)benzonitrile], which IC50 is on record?
**A.** The IC50 was 50 to 100 nM.

**Q.** With `COc1c(-c2ccc(N3C[C@@H](C)O[C@@H](C)C3)cc2)cnc2c(-c3ccc(OC(F)(F)F)cc3)cccc12` [Embodiment 91] as the compound, how does the IC50 read?
**A.** The IC50 was no more than 50 nM.

**Q.** With `COc1c(N2C3CCC2CC(N2C[C@@H](C)O[C@@H](C)C2)C3)cnc2c(-c3ccc(C#N)cc3)cccc12` (some centres unmarked) [Embodiment 230, 4-(3-(3-(2,6-dimethylmorpholino-4-yl)-8-azabicyclo[3.2.1]octan-8-yl)-4-methoxyquinolin-8-yl)benzonitrile] as the compound, how does the IC50 read?
**A.** Its IC50 is 100 to 500 nM.

**Q.** `COc1c(N2CC(N3C[C@@H](C)O[C@@H](C)C3)C2)cnc2c(-c3ccc(C#N)cc3)cccc12` [Embodiment 228, 4-(3-(3-(2,6-dimethylmorpholino-4-yl)azetidin-1-yl)-4-methoxyquinolin-8-yl) benzonitrile] was tested. Which IC50 did it give?
**A.** Its IC50 is 100 to 500 nM.

**Q.** `CC(C)(O)c1ccc(C2(O)CCN(c3cnc4c(-c5ccc(C#N)cc5)cccc4c3C3CC3)CC2)nc1` [Embodiment 262] was tested. Which IC50 did it give?
**A.** The IC50 was no more than 50 nM.

**Q.** With `COc1c(-c2ccc(N3C[C@@H](C)O[C@@H](C)C3)cc2)cnc2c(-c3ccc(C#N)cc3)ccnc12` [Embodiment 147, 4-(7-(4-((2S,6R)-2,6-dimethylmorpholino)phenyl)-8-methoxy-1,5-naphthyridin-4-yl) benzonitrile] as the compound, how does the IC50 read?
**A.** Its IC50 is 100 to 500 nM.

**Q.** With `N#Cc1ccc(-c2cccc3c(C4CC4)c(N4CCN(c5cc[nH]c(=O)c5)CC4)cnc23)cc1` [Embodiment 271, 4-(4-cyclopropyl-3-(4-(2-oxo-1,2-dihydropyridin-4-yl)piperazin-1-yl)quinolin-8-yl) benzonitrile] as the compound, how does the IC50 read?
**A.** Its IC50 is 100 to 500 nM.

**Q.** `COc1c(N2CCNCC2)cnc2c(-c3ccc(C#N)cc3)cccc12` [Embodiment 208] was tested. Which IC50 did it give?
**A.** The IC50 was 100 to 500 nM.

**Q.** For `COc1c(-c2ccc(N3C[C@@H](C)N(C(=O)CC(F)(F)F)[C@@H](C)C3)nc2)cnc2c(-c3ccc(C#N)cc3)cccc12` [Embodiment 197], which IC50 is on record?
**A.** Its IC50 is 500 to 1000 nM.

**Q.** Which IC50 does the source give for `Cc1cn(-c2ccc(N3C[C@@H](C)O[C@@H](C)C3)cc2)c(=O)c2cccc(-c3ccc(C#N)cc3F)c12` [Embodiment 60] here?
**A.** The IC50 was 100 to 500 nM.

**Q.** `COc1c(N2CCN(c3ccc(C(C)(C)O)cn3)C(=O)C2)cnc2c(-c3ccc(C#N)cc3)cccc12` [Embodiment 253, 4-(3-(4-(5-(2-hydroxypropan-2-yl)pyridin-2-yl)-3-oxopiperazin-1-yl-4-methoxyquinolin-8-yl))benzonitrile] was tested. Which IC50 did it give?
**A.** Its IC50 is 100 to 500 nM.

**Q.** Which IC50 does the source give for `Cc1cn(-c2ccc(N3Cc4nnc(C(F)(F)F)n4C(C)C3)cc2)c(=O)c2cccc(-c3ccc(C#N)cc3)c12` (centres unmarked) [Embodiment 41, 4-(4-methyl-2-(4-(5-methyl-3-(trifluoromethyl)-5,6-dihydro-[1,2,4]triazolo[4,3-a]pyrazin-7(8H)-yl)phenyl)-1-oxo-1,2-dihydroisoquinolin-5-yl)benzonitrile] here?
**A.** The IC50 was no more than 50 nM.

**Q.** Which IC50 does the source give for `COc1c(-c2ccc(N3CC(C)(C)C(O)C(C)(C)C3)cc2)cnc2c(-c3ccc(C#N)cc3)cccc12` [Embodiment 251] here?
**A.** Its IC50 is no more than 50 nM.

**Q.** Which IC50 does the source give for `Cc1cn(-c2ccc(N3C[C@@H](C)O[C@@H](C)C3)cc2)c(=O)c2cccc(-c3ccc(OC(F)(F)F)cc3)c12` [Embodiment 47] here?
**A.** Its IC50 is 1000 to 5000 nM.
